Series [1] deals with Staphylococcus aureus. Put plainly: Antibacterial activity against Staphylococcus aureus harboring DHFR F98Y mutant. Type of series: functional.
For series [2], the system named is Staphylococcus aureus. Put plainly: Antibacterial activity against Staphylococcus aureus ATCC 43300 harboring wild type DHFR. Type of series: functional.
Series [3] in a line: Inhibition of Staphylococcus aureus DHFR F98Y mutant.
Series [4] deals with T1, Dihydrofolate reductase (Staphylococcus aureus, UniProt P0A017). Put plainly: Inhibition of wild type Staphylococcus aureus DHFR.
The subject of series [5] is Mycobacterium tuberculosis. Put plainly: Antibacterial activity against Mycobacterium tuberculosis H37Ra. Type of series: functional.
The nature of series [6]: Inhibition of Pseudomonas aeruginosa DHFR.
Series [7] concerns the target T1, Dihydrofolate reductase. Put plainly: Inhibition of Staphylococcus aureus DHFR.
Series [8] in a line: Cytotoxicity against african green monkey Vero cells. Type of series: toxicity, cell-based. As to conditions: chlorocebus sabaeus.
Series [9] deals with Mycobacterium tuberculosis. Put plainly: Antibacterial activity against Mycobacterium tuberculosis H37Rv. Type of series: functional.
Series [10] deals with Mycobacterium tuberculosis. Put plainly: Antibacterial activity against Mycobacterium tuberculosis Erdman. Type of series: functional.
Series [11] has as its system Pseudomonas aeruginosa. Put plainly: Synergistic antibacterial activity against Pseudomonas aeruginosa PA01 assessed as fractional inhibitory concentration index in presence of gallic acid. Type of series: functional.
Series [12] has as its system Pseudomonas aeruginosa. Put plainly: Antibacterial activity against Pseudomonas aeruginosa PA01. Type of series: functional.
The subject of series [13] is Pseudomonas aeruginosa. Put plainly: Synergistic antibacterial activity against Pseudomonas aeruginosa PA01 assessed as fractional inhibitory concentration index in presence of myricetin. Type of series: functional.
In series [14] the test system is Pseudomonas aeruginosa. Put plainly: Synergistic antibacterial activity against Pseudomonas aeruginosa PA01 assessed as fractional inhibitory concentration index in presence of quercetin. Type of series: functional.
The test system of series [15] is Pseudomonas aeruginosa. Put plainly: Synergistic antibacterial activity against Pseudomonas aeruginosa PA01 assessed as fractional inhibitory concentration index in presence of protocatechuic acid. Type of series: functional.
Series [16] addresses T2, Dihydrofolate reductase (Mycobacterium tuberculosis, UniProt P9WNX1).
T2 sequence (P9WNX1 whole entry): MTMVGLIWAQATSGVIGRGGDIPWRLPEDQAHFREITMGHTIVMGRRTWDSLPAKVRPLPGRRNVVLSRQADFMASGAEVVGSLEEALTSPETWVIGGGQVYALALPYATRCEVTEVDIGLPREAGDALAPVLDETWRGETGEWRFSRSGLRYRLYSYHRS
Description: Inhibition of Mycobacterium tuberculosis DHFR

Series [17] has as its system Mycobacterium tuberculosis. Put plainly: Antibacterial activity against Mycobacterium tuberculosis H37Rv incubated for 7 days by resazurin dye based broth microdilution assay. Type of series: functional. As to conditions: 168 h, time 7 day.
For series [18], the system named is Escherichia coli. Put plainly: Antibacterial activity against Escherichia coli ATCC 25922. Type of series: functional.
Series [19] relates to Escherichia coli. Put plainly: Antibacterial activity against Escherichia coli NR698. Type of series: functional.
In series [20] the test system is Staphylococcus aureus. Put plainly: Antibacterial activity against Staphylococcus aureus ATCC 29213 harboring wild type DHFR. Type of series: functional.
Series [21] deals with Staphylococcus aureus. Put plainly: Antibacterial activity against Staphylococcus aureus RN4220 harboring wild type DHFR. Type of series: functional.
Series [22] concerns Staphylococcus aureus. Put plainly: Antibacterial activity against methicillin resistant Staphylococcus aureus CCARM3167. Type of series: functional.

Structures are written as SMILES. In brackets after ≈: the same amount, converted by molar mass. Several values for one entry are separate records, joined by “and”; a condition that tells them apart may be missing. Identical values can stand only once.

T1 sequence (P0A017 whole entry): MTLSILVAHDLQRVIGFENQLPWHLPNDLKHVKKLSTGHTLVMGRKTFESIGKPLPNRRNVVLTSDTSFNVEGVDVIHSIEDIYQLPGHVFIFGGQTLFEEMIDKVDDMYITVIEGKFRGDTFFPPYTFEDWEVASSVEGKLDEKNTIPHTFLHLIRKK

Turning to `CCc1nc(N)nc(N)c1C#C[C@@H](C)c1cc(OC)cc(-c2ccncc2)c1`, the results for the MIC against Staphylococcus aureus [1] and in the series on Staphylococcus aureus [2] were 1.75 µM (≈ 0.653 µg/mL) and 0.11 µM (≈ 0.0411 µg/mL), respectively. Besides, the IC50 amounted to 0.111 µM in [3] and 0.018 µM against Dihydrofolate reductase [4].

As to `Nc1nc(N)c(-c2ccc(C(=O)Nc3cccc(OC(F)(F)F)c3)cc2)c(OCc2cncs2)n1`, the MIC in [5] was 12.4 µM and 6.25 µg/mL.

In series [6], `O=C(O)c1cc(O)c(O)c(O)c1` [GALLIC ACID] yielded an IC50 of 9620 µM.

`Cc1ccc(CN2C(=O)/C(=C3\SC(=S)N(C(=O)O)C3=O)c3ccccc32)cc1`: the IC50 against Dihydrofolate reductase [7] is 0.46 µM.

The molecule `COc1cc(-c2nc(N)nc(N)n2)ccc1OCc1ccc(F)cc1` had a CC50 in series [8] of 360 µM. This molecule also yielded an MIC in [9] of 3.39 µM (≈ 1.16 µg/mL).

In the case of `CCc1nc(N)nc(N)c1C#CCc1cc(OC)cc(-c2ccc(C(=O)O)cc2)c1`, the MIC in [9] is 0.311 µM (≈ 0.125 µg/mL); in series [10], 1.24 µM (≈ 0.5 µg/mL).

Take `CCC[C@H]1c2ccccc2C=NN1C(=O)/C=C/c1cc(Cc2cnc(N)nc2N)cc(OC)c1OC`: 0.0018 µM corresponded to half-maximal inhibition in series [3] (IC50).

On to `Cc1cc(NS(=O)(=O)c2ccc(N)cc2)no1` [SULFAMETHOXAZOLE], for which the “fractional inhibitory concentration index (FICI)” value in the series with Pseudomonas aeruginosa [11] amounted to 0.38; with Pseudomonas aeruginosa [13], 0.38; in the series on Pseudomonas aeruginosa [14] it was 0.38; in the series on Pseudomonas aeruginosa [15] it was 0.25. This molecule gave an IC50 in series [6] of 140 µM. In the series with Pseudomonas aeruginosa [12], this molecule registered an MIC of 500 µM (≈ 127 µg/mL).

`COc1cc(Cc2cnc(N)nc2N)cc(OC)c1OC` [TRIMETHOPRIM] showed an IC50 in series [6] of 88.7 µM. In addition, the MIC in the series with Pseudomonas aeruginosa [12] came to 110 µM (≈ 31.9 µg/mL).

`COc1ccc(-c2nc3ccccc3c(=O)[nH]2)cc1` came in with an IC50 against Dihydrofolate reductase [16] of 49.1 µM. Besides, the MIC in [17] is 125 µM and 31.5 µg/mL.

`Nc1nc(N)nc(-c2ccc(OCc3ccc(Cl)cc3)cc2)n1` yielded a CC50 in series [8] of 464 µM. This molecule showed an MIC in series [9] of 1.76 µM (≈ 0.577 µg/mL).

`COc1ccc(-c2nc(N)nc(N)n2)cc1Oc1ccc(Cl)cc1` displayed a CC50 in series [8] of 335 µM. The MIC in [9] was 4.92 µM (≈ 1.69 µg/mL).

As for `CCc1nc(N)nc(N)c1C#C[C@H](C)c1cc(OC)cc(-c2ccncc2)c1`, the MIC stood at 14 µM (≈ 5.22 µg/mL) in the series with Staphylococcus aureus [1] and 0.874 µM (≈ 0.326 µg/mL) in the series with Staphylococcus aureus [2]. In addition, the figures for the IC50 (in series [3]; at Dihydrofolate reductase [4]) were 0.51 µM and 0.015 µM, respectively.

For the molecule `Nc1nc(N)c2c(ccc3c2ccn3Cc2ccc3ccccc3c2)n1`, the MIC95 in series [9] worked out at 3.12 µM (≈ 1.06 µg/mL). Moreover, at Dihydrofolate reductase [16], 0.00096 µM corresponded to half-maximal inhibition (IC50).

Regarding `O=C(O[C@@H]1Cc2c(O)cc(O)cc2O[C@@H]1c1cc(O)c(O)c(O)c1)c1cc(O)c(O)c(O)c1` [EPIGALOCATECHIN GALLATE], the MIC in [9] was 4.25 µM (≈ 1.95 µg/mL). For the same molecule, the IC50 against Dihydrofolate reductase [16] came out at 10.9 µM.

As to `O=C(O)c1ccc(O)c(O)c1` [PROTOCATECHUIC ACID], the IC50 in series [6] worked out at 10700 µM.

Consider `O=c1c(O)c(-c2cc(O)c(O)c(O)c2)oc2cc(O)cc(O)c12` [MYRICETIN], for which the IC50 in [6] came to 520 µM. Moreover, it took 1550 µM (≈ 493 µg/mL) to inhibit growth against Pseudomonas aeruginosa [12] (MIC).

In turn, `Nc1nc(N)c2cc(C(F)(F)F)ccc2n1` returned an MIC99 in [9] of 207 µM (≈ 47.2 µg/mL).

`CCc1nc(N)nc(N)c1C#C[C@H](C)c1cc(OC)cc(-c2ccc(C(=O)O)cc2)c1`: the MIC in series [9] and in series [10] was < 0.072 µM each time.

The molecule `CCCCc1nc(Cl)c(C2NC(=O)NC(C)=C2C(=O)Nc2ccc(F)cc2)[nH]1` (stereo not drawn) gave an MIC in series [9] of 0.96 µM (≈ 0.39 µg/mL). Further, the IC50 on Dihydrofolate reductase [16] was > 24.6 µM.

Regarding `CCc1nc(N)nc(N)c1C#C[C@@H](C)c1cc(OC)cc(-c2ccc(C(=O)O)cc2)c1`, the MIC in the series with Escherichia coli [18] amounted to 24 µM (≈ 10 µg/mL); with Escherichia coli [19] it was 0.0075 µM (≈ 0.00312 µg/mL).

`O=c1[nH]c(=O)c2c(ncn2Cc2ccccc2)[nH]1` gave an IC50 at Dihydrofolate reductase [16] of 38.6 µM. The MIC in series [17] is 130 µM and 31.5 µg/mL.

In the series on Staphylococcus aureus [20], `CCCc1cc(N)cc(N)c1Cc1cc(/C=C/C(=O)N2N=Cc3ccccc3C2C=C(C)C)c(OC)c(OC)c1` (stereo not drawn) returned an MIC of 3.72 µM (≈ 2 µg/mL). Besides, at Dihydrofolate reductase [4], the affinity, expressed as Ki, was 0.004 µM.

In the case of `O=c1c(O)c(-c2ccc(O)c(O)c2)oc2cc(O)cc(O)c12` [QUERCETIN], the IC50 in series [6] was found to be 595 µM. Further, 1650 µM (≈ 499 µg/mL) was the least that counted as inhibitory with Pseudomonas aeruginosa [12] (MIC).

`CC[C@@H]1CC[C@H]2C(CC)(CC)[C@H](O)CC[C@]2(CC)[C@@]12Cc1c(O)cc3c(c1O2)COC3=O`: the MIC with Staphylococcus aureus [21] and in the series with Staphylococcus aureus [22] was 72.3 µM (≈ 32 µg/mL) each time. Besides, the midpoint of inhibition at Dihydrofolate reductase [4], the IC50, lay at 41.5 µM.

As a reminder, the MIC is the smallest concentration in the dilution series that meets the test's criterion for growth inhibition. The term IC50 denotes the concentration that gives 50% inhibition. The term CC50 denotes the concentration that lowers cell viability or growth by half. Usually MIC99 stands for the lowest concentration that inhibits either 99% of growth or 99% of the strains tested, depending on the study. The term Ki denotes a dissociation constant, usually derived from enzyme kinetics or from competition with a known ligand.

Values taken from ChEMBL document CHEMBL5233242, “Dihydrofolate reductase inhibitors for use as antimicrobial agents” (Eur J Med Chem, 2020).
